Measured values: US20240199546A1, “INHIBITORS OF SOLUTE CARRIER FAMILY 6A MEMBER 19 (SLC6A19) AND METHODS OF USE THEREOF” (Maze Therapeutics, Inc., priority 2022, published 2024)

Biological target: T1, human SLC6A19 and TMEM27 (Homo sapiens, UniProt Q695T7)
T1 construct: expressed in transfected cells
T1 sequence (Q695T7 1-634): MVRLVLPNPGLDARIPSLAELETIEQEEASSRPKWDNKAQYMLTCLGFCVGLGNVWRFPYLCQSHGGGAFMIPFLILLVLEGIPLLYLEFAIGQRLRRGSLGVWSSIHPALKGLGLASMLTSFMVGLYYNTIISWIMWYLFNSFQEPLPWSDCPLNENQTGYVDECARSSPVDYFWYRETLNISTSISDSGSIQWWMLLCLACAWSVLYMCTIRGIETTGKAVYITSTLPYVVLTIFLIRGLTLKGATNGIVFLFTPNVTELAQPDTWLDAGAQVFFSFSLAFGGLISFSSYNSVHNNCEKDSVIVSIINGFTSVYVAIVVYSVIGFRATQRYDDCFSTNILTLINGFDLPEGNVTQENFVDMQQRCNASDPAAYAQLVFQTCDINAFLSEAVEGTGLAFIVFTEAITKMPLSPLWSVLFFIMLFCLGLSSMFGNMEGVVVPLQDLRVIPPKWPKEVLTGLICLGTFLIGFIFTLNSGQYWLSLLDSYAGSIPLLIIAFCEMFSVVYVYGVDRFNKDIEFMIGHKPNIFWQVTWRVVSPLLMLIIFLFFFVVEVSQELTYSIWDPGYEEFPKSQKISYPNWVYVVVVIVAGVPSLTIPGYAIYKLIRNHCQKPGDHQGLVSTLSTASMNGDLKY
T1 sequence (Q9HBJ8 15-222 partner): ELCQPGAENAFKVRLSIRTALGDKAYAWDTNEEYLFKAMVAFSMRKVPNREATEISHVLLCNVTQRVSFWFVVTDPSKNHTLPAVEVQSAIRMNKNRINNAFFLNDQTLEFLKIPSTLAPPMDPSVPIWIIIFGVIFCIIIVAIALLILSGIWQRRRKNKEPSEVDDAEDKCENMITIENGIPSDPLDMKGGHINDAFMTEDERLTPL
Experiment: Radiolabelled (3H) leucine uptake in CHO cells with doxycycline-inducible expression of human SLC6A19 and TMEM27 (Example B-1)
Type: cell-based
Settings: CHO cells with doxycycline-inducible expression of human SLC6A19 and TMEM27, read-out: SLC6A19_Radioligand Uptake Assay IC50
Method: The flasks were then incubated (humidified, 37° C. with 5% CO2) for 2 minutes. After incubation, 10 mL of pre-warmed cell culture media was added to each flask. The cell suspension was collected and centrifuged for 5 minutes at 200×g. The supernatant was aspirated and the pellet was resuspended in 5 mL pre-warmed cell culture media. The resuspended cells were counted using the Countess Cell Counting Chamber (Invitrogen) and the cell concentration of the suspension was readjusted to 1 million live cells/mL using pre-warmed cell culture media. […] Assay plates were then incubated (humidified, 37° C. with 5% CO2) for 18 hours. After incubation, the media was aspirated and the wells were washed 4 times with pre-warmed HBSS (Sigma-Aldrich, H8264-1L) using an Apricot S-Pipette S2 (Apricot Designs), such that 5 uL/well HBSS was remaining at the end of each wash. […] At this step, the final in-well DMSO concentration in the assay plate is 0.5%. All compounds were plated in a duplicate 8-point dilution series that consisted of 3-fold dilutions. The plates were incubated with compound (humidified, 37° C. with 5% CO2) for 1 hour. […] The plates were then incubated (humidified, 37° C. with 5% CO2) on a plate shaker at 200 rpm for 2 hours. After incubation, the plates were removed from the shaker and kept at room temperature for 15 minutes. Liquid scintillation analysis was performed using the MicroBeta2 Microplate Counter (Perkin Elmer). Activity (%) was derived by normalizing the average of positive control compound treated wells to 0% and the average of DMSO (negative control) wells to 100%. Collaborative Drug Discovery software was used for graphing data.

SMILES	IC50 [nM]
Cc1cc(COc2cc3[nH]c(CNC(=O)[C@H]4COCCN4C)cc3cc2Cl)on1 [Compound 302, (R)-N-((5-chloro-6-((3-methylisoxazol-5-yl)methoxy)-1H-indol-2-yl)methyl)-4-methylmorpholine-3-carboxamide]	7110
O=C(NCc1cc2cc(Cl)c(OCc3cscn3)cc2[nH]1)C1(CO)CC1 [Compound 254, N-((5-chloro-6-(thiazol-4-ylmethoxy)-1H-indol-2-yl)methyl)-1-(hydroxymethyl)cyclopropane-1-carboxamide]	294
COCCOc1cc2[nH]c(CNC(=O)C3(C)CC3)cc2cc1Cl [Compound 333, N-((5-chloro-6-(2-methoxyethoxy)-1H-indol-2-yl)methyl)-1-methylcyclopropane-1-carboxamide]	206
C[C@@H]1CCN1C(=O)NCc1cc2cc(Cl)c(OCc3cscn3)cc2[nH]1 [Compound 361, (R)-N-((5-chloro-6-(thiazol-4-ylmethoxy)-1H-indol-2-yl)methyl)-2-methylazetidine-1-carboxamide]	286
COCCNC(=O)NCc1cc2cc(Cl)c(OCc3cscn3)cc2[nH]1 [Compound 380, 1-((5-chloro-6-(thiazol-4-ylmethoxy)-1H-indol-2-yl)methyl)-3-(2-methoxyethyl)urea]	1130
CC1(C(=O)NCc2cc3cc(Cl)c(OCc4cccnn4)cc3[nH]2)CC1 [Compound 334, N-((5-chloro-6-(pyridazin-3-ylmethoxy)-1H-indol-2-yl)methyl)-1-methylcyclopropane-1-carboxamide]	519
C[C@@H]1CCN(C(=O)NCc2cc3cc(F)c(OCc4cscn4)cc3[nH]2)C1 [Compound 387, (R)-N-((5-fluoro-6-(thiazol-4-ylmethoxy)-1H-indol-2-yl)methyl)-3-methylpyrrolidine-1-carboxamide]	209
Cc1cc(COc2cc3[nH]c(CNC(=O)CC4(C)COC4)cc3cc2Cl)on1 [Compound 288, N-((5-chloro-6-((3-methylisoxazol-5-yl)methoxy)-1H-indol-2-yl)methyl)-2-(3-methyloxetan-3-yl)acetamide]	3260
O=C(NCc1cc2cc(Cl)c(OCc3cscn3)cc2[nH]1)C1CCCO1 (centres unmarked) [Compound 268, N-((5-chloro-6-(thiazol-4-ylmethoxy)-1H-indol-2-yl)methyl)tetrahydrofuran-2-carboxamide]	421
Cc1cc(COc2cc3[nH]c(CNC(=O)[C@@H]4CCO4)cc3cc2Cl)on1 [Compound 276, (S)-N-((5-chloro-6-((3-methylisoxazol-5-yl)methoxy)-1H-indol-2-yl)methyl)oxetane-2-carboxamide]	94
CCc1cc(COc2ccc3cc(CNC(=O)C4(C)CC4)[nH]c3c2)no1 [Compound 185, N-((6-((5-ethylisoxazol-3-yl)methoxy)-1H-indol-2-yl)methyl)-1-methylcyclopropane-1-carboxamide]	1050
CC[C@H](O)C(=O)NCc1cc2cc(Cl)c(OCc3cc(C)no3)cc2[nH]1 [Compound 240, (S)-N-((5-chloro-6-((3-methylisoxazol-5-yl)methoxy)-1H-indol-2-yl)methyl)-2-hydroxybutanamide]	490
CC1(C(=O)NCc2cc3cc(Cl)c(OCc4ncon4)cc3[nH]2)CC1 [Compound 319, N-((6-((1,2,4-oxadiazol-3-yl)methoxy)-5-chloro-1H-indol-2-yl)methyl)-1-methylcyclopropane-1-carboxamide]	273
Cc1cc(COc2cc3[nH]c(CNC(=O)[C@@H]4COCCO4)cc3cc2Cl)on1 [Compound 303, (S)-N-((5-chloro-6-((3-methylisoxazol-5-yl)methoxy)-1H-indol-2-yl)methyl)-1,4-dioxane-2-carboxamide]	814
COC1CN(C(=O)NCc2cc3cc(Cl)c(OCc4cscn4)cc3[nH]2)C1 [Compound 364, N-((5-chloro-6-(thiazol-4-ylmethoxy)-1H-indol-2-yl)methyl)-3-methoxyazetidine-1-carboxamide]	690
C[C@@H]1CCN(C(=O)NCc2cc3cc(F)c(OCc4ccon4)cc3[nH]2)C1 [Compound 381, (R)-N-((5-fluoro-6-(isoxazol-3-ylmethoxy)-1H-indol-2-yl)methyl)-3-methylpyrrolidine-1-carboxamide]	339
CC(=O)NCc1cc2cc(Cl)c(OC[C@H]3CCOC3)cc2[nH]1 [Compound 464, (S)-N-((5-chloro-6-((tetrahydrofuran-3-yl)methoxy)-1H-indol-2-yl)methyl)acetamide]	1350
CC(C)c1cc2cc(CNC(=O)C3(C)CC3)[nH]c2cc1OCc1ccon1 [Compound 204, N-((5-isopropyl-6-(isoxazol-3-ylmethoxy)-1H-indol-2-yl)methyl)-1-methylcyclopropane-1-carboxamide]	536
CC1(C(=O)NCc2cc3c(F)c(Cl)c(OCc4cscn4)cc3[nH]2)CC1 [Compound 17, N-((5-chloro-4-fluoro-6-(thiazol-4-ylmethoxy)-1H-indol-2-yl)methyl)-1-methylcyclopropane-1-carboxamide]	362

More lines, now with the values ahead:

IC50 [nM]	SMILES
408	CC1(C(=O)NCc2cc3cc(OC(F)(F)F)c(CCc4cocn4)cc3[nH]2)CC1 [Compound 514, 1-methyl-N-((6-(2-(oxazol-4-yl)ethyl)-5-(trifluoromethoxy)-1H-indol-2-yl)methyl)cyclopropane-1-carboxamide]
680	Cc1cc(COc2cc3[nH]c(CNC(=O)C4(C)CC4)cc3cc2C(F)F)no1 [Compound 647, N-((5-(difluoromethyl)-6-((5-methylisoxazol-3-yl)methoxy)-1H-indol-2-yl)methyl)-1-methylcyclopropane-1-carboxamide]
119	O=C(NCc1cc2cc(Cl)c(OCc3cscn3)cc2[nH]1)[C@H]1C[C@@H]1F [Compound 544, (1R,2S)-N-((5-chloro-6-(thiazol-4-ylmethoxy)-1H-indol-2-yl)methyl)-2-fluorocyclopropane-1-carboxamide]
182	O=C(NCc1cc2cc(F)c(OCc3cscn3)cc2[nH]1)C(F)F [Compound 567, 2,2-difluoro-N-((5-fluoro-6-(thiazol-4-ylmethoxy)-1H-indol-2-yl)methyl)acetamide]
196	O=C(NCc1cc2cc(Cl)c(OCc3cscn3)cc2[nH]1)C1(C(F)F)CC1 [Compound 559, N-((5-chloro-6-(thiazol-4-ylmethoxy)-1H-indol-2-yl)methyl)-1-(difluoromethyl)cyclopropane-1-carboxamide]
145	O=C(NCc1cc2cc(Cl)c(OCc3cscn3)cc2[nH]1)[C@@H]1C[C@H]1F [Compound 543, (1S,2R)-N-((5-chloro-6-(thiazol-4-ylmethoxy)-1H-indol-2-yl)methyl)-2-fluorocyclopropane-1-carboxamide]
524	Cc1cc(COc2cc3[nH]c(CNC(=O)[C@@H]4C[C@@H](F)CN4C)cc3cc2Cl)on1 [Compound 667, (2S,4R)—N-((5-chloro-6-((3-methylisoxazol-5-yl)methoxy)-1H-indol-2-yl)methyl)-4-fluoro-1-methylpyrrolidine-2-carboxamide]
2990	Cc1cc(COc2cc3[nH]c(CNC(=O)[C@@H]4CC(F)(F)CN4)cc3cc2Cl)on1 [Compound 666, (S)-N-((5-chloro-6-((3-methylisoxazol-5-yl)methoxy)-1H-indol-2-yl)methyl)-4,4-difluoropyrrolidine-2-carboxamide]
3040	O=C(CC12CC(C1)C2)NCc1cc2cc(Cl)c(OCc3cscn3)cc2[nH]1 [Compound 555, 2-(bicyclo[1.1.1]pentan-1-yl)-N-((5-chloro-6-(thiazol-4-ylmethoxy)-1H-indol-2-yl)methyl)acetamide]
991	CC1(C(=O)NCc2cc3cc(Cl)c(CNc4cccnc4)cc3[nH]2)CC1 [Compound 610, N-((5-chloro-6-((pyridin-3-ylamino)methyl)-1H-indol-2-yl)methyl)-1-methylcyclopropane-1-carboxamide]
